Data as given in PubChem BioAssay (NCI).
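Values below derive from 48-hour exposures of cells grown in 96-well plates, with endpoints linearly interpolated between the two concentrations bracketing the appropriate inhibition level. At the TGI there is no net growth.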

What was measured:
Assay in all cases: inhibition of tumour cell growth, NCI panel, 48 h
[1] = test system: MDA-MB-231 breast
[2] = test system: HOP-92 NSCLC
[3] = test system: K-562 leukemia
[4] = test system: SK-MEL-28 melanoma
[5] = test system: NCI/ADR-RES ovarian
[6] = test system: SN12C renal
[7] = test system: OVCAR-4 ovarian
[8] = test system: SF-268 CNS
[9] = test system: A498 renal
[10] = test system: SNB-19 CNS
[11] = test system: KM12 colon
[12] = test system: OVCAR-3 ovarian
[13] = test system: A549 NSCLC
[14] = test system: NCI-H460 lung
[15] = test system: SK-MEL-5 melanoma
[16] = test system: NCI-H23 lung
[17] = test system: SF-539 CNS
[18] = test system: HOP-62 NSCLC
[19] = test system: SR leukemia
[20] = test system: NCI-H522 lung
[21] = test system: HCT-15 colon
[22] = test system: LOX IMVI melanoma
[23] = test system: CAKI-1 renal
[24] = test system: ACHN renal
[25] = test system: 786-0 renal
[26] = test system: M14 melanoma
[27] = test system: RPMI-8226 leukemia
[28] = test system: COLO 205 colon
[29] = test system: HCC-2998 colon
[30] = test system: SNB-75 CNS
[31] = test system: DU-145 prostate
[32] = test system: OVCAR-5 ovarian
[33] = test system: U251 CNS
[34] = test system: SW-620 colon
[35] = test system: MDA-N
[36] = test system: UO-31 renal
[37] = test system: EKVX NSCLC
[38] = test system: CCRF-CEM leukemia
[39] = test system: RXF 393 renal
[40] = test system: SK-OV-3 ovarian
[41] = test system: MOLT-4 leukemia
[42] = test system: HCT-116 colon
[43] = test system: HS 578T breast
[44] = test system: NCI-H226 lung
[45] = test system: SK-MEL-2 melanoma
[46] = test system: UACC-62 melanoma
[47] = test system: HL-60(TB) leukemia
[48] = test system: SF-295 CNS
[49] = test system: MALME-3M melanoma
[50] = test system: HT29 colon
[51] = test system: IGROV1 ovarian
[52] = test system: TK-10 renal
[53] = test system: PC-3 prostate
[54] = test system: T-47D breast
[55] = test system: MDA-MB-435
[56] = test system: UACC-257 melanoma
[57] = test system: OVCAR-8 ovarian
[58] = test system: MCF7 breast

CC1=CC(=O)c2cccc(NC3=NCCO3)c21 was tested, and the TGI [1] was > 100 µM, the TGI [2] was 77.7 µM and the TGI [3] was > 100 µM. For the same compound, the TGI [4] was > 100 µM, the TGI [5] was 82.5 µM and the TGI [6] was > 100 µM. The TGI [7] was > 100 µM, the TGI [8] was > 100 µM and the TGI [9] was > 100 µM. For the same compound, the TGI [10] was > 100 µM, the TGI [11] was 90.5 µM and the TGI [12] was 90.4 µM. The TGI [13] was > 100 µM, the TGI [14] was > 100 µM and the TGI [15] was 42.3 µM. The TGI [16] was > 100 µM, the TGI [17] was > 100 µM and the TGI [18] was > 100 µM. For the same compound, the TGI [19] was 91.6 µM, the TGI [20] was > 100 µM and the TGI [21] was > 100 µM. The TGI [22] was > 100 µM, the TGI [23] was > 100 µM and the TGI [24] was > 100 µM. For the same compound, the TGI [25] was > 100 µM, the TGI [26] was > 100 µM and the TGI [27] was > 100 µM. For the same compound, the TGI [28] was > 100 µM, the TGI [29] was > 100 µM and the TGI [30] was > 100 µM. The TGI [31] was > 100 µM, the TGI [32] was > 100 µM and the TGI [33] was > 100 µM. The TGI [34] was > 100 µM, the TGI [35] was > 100 µM and the TGI [36] was > 100 µM. For the same compound, the TGI [37] was > 100 µM, the TGI [38] was > 100 µM and the TGI [39] was > 100 µM. For the same compound, the TGI [40] was > 100 µM, the TGI [41] was > 100 µM and the TGI [42] was > 100 µM. The TGI [43] was > 100 µM, the TGI [44] was 87.2 µM and the TGI [45] was > 100 µM. The TGI [46] was > 100 µM, the TGI [47] was 41.2 µM and the TGI [48] was > 100 µM. For the same compound, the TGI [49] was 91.6 µM, the TGI [50] was > 100 µM and the TGI [51] was > 100 µM. For the same compound, the TGI [52] was > 100 µM, the TGI [53] was > 100 µM and the TGI [54] was > 100 µM. It also gave a TGI [55] of 86.2 µM.

Work on C=CCC1NCCC2=C1C(S(=O)(=O)c1ccc(C)cc1)c1ccccc12 (stereo unspecified) yielded a TGI [1] of 25.5 µM, a TGI [2] of 25.7 µM and a TGI [3] of 63.4 µM. For the same compound, the TGI [4] was 26.6 µM, the TGI [5] was 28.5 µM and the TGI [6] was 28.5 µM. For the same compound, the TGI [7] was 25.7 µM, the TGI [8] was 34.7 µM and the TGI [9] was 33.2 µM. For the same compound, the TGI [10] was 33.2 µM, the TGI [11] was 22.6 µM and the TGI [12] was 26 µM. The TGI [13] was 29.2 µM, the TGI [14] was 26.2 µM and the TGI [15] was 27.6 µM. The TGI [16] was 36.4 µM, the TGI [18] was 28.2 µM and the TGI [19] was 38.4 µM. The TGI [20] was 26 µM, the TGI [21] was 27.8 µM and the TGI [22] was 23.1 µM. For the same compound, the TGI [23] was 19.6 µM, the TGI [24] was 24.3 µM and the TGI [25] was 25.7 µM. It also gave a TGI [26] of 26.8 µM, a TGI [27] of 27.8 µM and a TGI [28] of 4.29 µM. For the same compound, the TGI [29] was 3.6 µM, the TGI [56] was > 53.4 µM and the TGI [30] was 18.9 µM. It also gave a TGI [31] of 24.3 µM, a TGI [32] of 33.2 µM and a TGI [33] of 24 µM. For the same compound, the TGI [34] was 29.4 µM, the TGI [35] was 20.2 µM and the TGI [36] was 20.5 µM. For the same compound, the TGI [57] was 30.5 µM, the TGI [37] was 33.5 µM and the TGI [38] was 28.6 µM. For the same compound, the TGI [39] was 17.6 µM, the TGI [40] was 33.2 µM and the TGI [41] was > 100 µM. For the same compound, the TGI [42] was 23.6 µM, the TGI [43] was 35.1 µM and the TGI [44] was 35.9 µM. For the same compound, the TGI [45] was 27.1 µM, the TGI [46] was 24.6 µM and the TGI [48] was 27.1 µM. The TGI [49] was 24 µM, the TGI [50] was 29.4 µM and the TGI [51] was 23.3 µM. For the same compound, the TGI [58] was 22 µM, the TGI [52] was 32.7 µM and the TGI [53] was 22.2 µM. It also gave a TGI [54] of 26.1 µM and a TGI [55] of 17.5 µM.
